Experimental data published in patent US6677307B2, “TGF-α polypeptides, functional fragments and methods of use therefor” (Kaleidos Pharma, Inc., priority 1999, dated 2004).
Where two headings read alike, the source gives them in different places.

Legend:
stem cells = assay: stimulation of cellular proliferation, 3H thymidine incorporation of stem cells; format: cell-based; details: loop peptides of human TGFα; compared to TGF-α 50 aa and 57 aa polypeptide; FIG. 2
Source text: Each of the three loop regions in human TGFα was investigated for TGFα-like biological activity, such as stimulation of cellular proliferation as measured by ^3H thymidine incorporation of stem cells. […] Accordingly, data from TGFα or TGF-α57 show what can be called “TGF-α activity” and that these are predictive of activity of the functional TGF-α peptide and similar functional TGF-α peptides embodied in the genus of formula I with or without the addition of a “tail” region of formula II.

[1] = tested on: human CD34 positive and CD38 negative cells; assay: liquid primary culture of human bone-marrow enriched CD34 cells; format: cell-based; details: positive control, 500 ng/ml
Procedure: An additional experiment investigated TGF-α activity (using TGF-α57) on human bone-marrow enriched CD34 cells. FACS-sorted human CD34 positive and CD38 negative cells were cultured in liquid primary cultures in Iscove's modified Dulbecco's media with supplements. […] Stem Cell Factor (SCF) was used as a positive control (500 ng/ml) and provided a three-fold increase in CD34 positive cells. When a combination of SCF (500 ng/ml) and TGFα (10 ng/ml) was added, a synergistic 12-fold increase in CD34 positive cells was observed.

[2] = tested on: immune cells (T cell lineage), mast cells; assay: immune cells, mast cells and cytokines in vivo after CP; parameters: species or system mice; details: in vivo
Source text: The stimulated immune cells were phenotypically identified as CD4 positive T cells and double null CD4 negative CD8 negative T cell progenitors. […] The in vivo activity of TGFα (and the functional peptides of formula I, formula II, formula III, and formula IV) to stimulate early T cell progenitors in the release of TH-1 and TH-2 cytokines and this regulation of immune phenomena. The stimulation of select immune cells, in particular cells of a T cell lineage, was seen consistently in the mice who received CP and TGF-α57 in lymphoid tissue, Peyers Patches and the spleen. Further, recruitment of help via CD4 cells in some cases boosts immune system function in general.
This is a parallel activity that is in addition to the gastrointestinal anti-inflammatory activity and prevention of mucositis of TGFα (and the functional peptides of formula I, formula II, formula III, and […]) described herein.

[3] = tested on: chronic inflammatory-like gastrointestinal symptoms; format: in vivo, non-human primate; parameters: wt.: unit not given here; details: for wt.: non-human primate, 300 μg/kg ip once, then 50 μg/kg S.C. 6 days
Procedure: (§1) In addition, studies of TGF-α for the treatment of diarrhea in non-human primates was also performed. […] This weight gain was maintained at least for several weeks post treatment. In addition, the reduction of SEGs (see column 6, Table 1) neutrophils correlates with reduction in inflammation associated with neutrophil influx and concomitant pro-inflammatory cytokines.

[4] = acid and heat; background statement; cited from earlier work
[5] = format: in vivo; details: non-human primate, 300 μg/kg ip once, then 50 μg/kg S.C. 6 days
Procedure: as §1

[6] = tested on: EGF receptor family (e.g., ErbB1 through 4); details: background statement; cited from earlier work
[7] = cited from earlier work
mouse intestines = assay: histological examination of intestines of CP-treated mice; format: in vivo; details: CP treatment; 50 μg/kg; FIG. 4
Procedure: The experiment procedure dosed those animals to be treated with TGFα 57 4 hours prior to challenge with CP. A single dose of CP was administered. Additional doses (as indicated) of TGFα 57 were made at 24 hours, 48 hours, 72 hours and 96 hours after the CP dose. All doses were made by IP injection. Controls were dosed with saline instead of either or both of CP and TGF-α57.
The animals were sacrificed about 4 hours after the last TGF-α57 (or saline) dose. Key organs were removed and spleens were immediately weighed after a clean incision. All the relevant organs were placed in formalin, transported for histopathological analysis, mounted, sectioned, stained and observed. The results of this histological analysis of the spleens for hematopoietic effect and the GI tract (below) provided surprising and unexpected data of the effect of TGF-α57 activity.
TGFα or a peptide from formula I, formula II, formula III, formula IV, formula V, or formula VI having TGFα activity or combinations thereof are also useful for treating mucositis associated intestinal bleeding, dyspepsia caused by with cytotoxic therapy and for improving the barrier function of the GI tract compromised by cytotoxic therapy. The in vivo experiment with seven groups of mice described above for hematopoietic effects noted in spleens also examined the GI tract of these treated mice. […] A single row of intestinal crypt is found at the base of the mucosa. These crypts that lie between adjacent villi are surrounded by the same lamina propria that form the villous cores. Both columnar absorptive cells and goblet cells cover the villous surfaces. The goblet cells contain apical clear vacuoles. […] Specifically, the villus was long and slender. Both absorptive cells and goblet cells were visible at the surface of the villi, and there was an abundant amount of goblet cells on the surface.
A 160×magnification of the intestines of a CP-treated mouse, a normal mouse and a CP treated and TGFα57 treated mouse at the same doses as described above. […] The crypts were irregularly shaped and in had various heights. […] The crypts also appeared normal.
Red cells were visible at the damaged surface indicating intestinal bleeding. […] Globlet cells appeared interspersed, necrotic and fewer in number than normal. […] Specifically, the epithelial cells appeared normal with extended brush borders. The nuclei were very densely stained and elongated.
The histological data is summarized in FIG. 4 that measured average crypt height of the three groups of mice.
An alcian blue staining method permitted differentiation of absorptive cells and goblet cells. Goblet cell mucus is stained a blue color while the absorptive cells remain less stained. […] In the normal intestine each villus extended from the luminal surface to the basal muscularis mucosal surface. Goblet cells were scattered and predominated in the base of the villus whereas columnar absorptive cells lined the luminal surface. […] The injured absorptive and goblet cells were degenerating at the tip of the villi and abundant secretory mucus material was stained in the luminal surface. In the CP/TGF-α mouse, there were an increased number of goblet cells scattered throughout the villi. The intestinal villi appeared normal with elongation. […] The luminal plasma membranes of the villi were well protected by TGF-α treatment. The number of goblet cells was counted on the average unit length of intestine.

For “Loop C: loop peptide region of TGFα, amino acids 33 to 50; TGF-α mimetic peptide (VCHSGYVGARCEHADLLA)”, the “TGF-α biological activity (stimulation of cellular proliferation)” value (“TGF-α biological activity” below) (stem cells) was “significant TGF-α biological activity”.
In the case of “SCF: Stem Cell Factor, used as a positive control [reference compound]”, the “increase in CD34 positive cells” value [1] is reported as “three-fold”.
In the case of “TGF-α: human transforming growth factor alpha, 50 amino acid polypeptide with three disulfide bonds, SEQ ID NO:1”, the “IL-6 and MIP” value [2] is reported as “downregulating IL-6 and MIP”, the TNF-α receptors [2] is reported as “downregulating TNF-α receptors” and the “mast cell degranulation and histamine release” value [2] is reported as “prevented mast cell degranulation and subsequent histamine release”. The neutrophil trafficking [2] was “blocking neutrophil trafficking”, the stool consistency ([3]; 300 μg/kg intraperitoneally once, then 50 μg/kg S.C. for 6 days) was “steady increase in stool consistency” and the wt. ([3]; Time 1) was 5.80. The wt. ([3]; Time 2) was 6.33, the wt. ([3]; Time 3) was 6.74 and the wt. ([3]; Time 4) was 8.21. For the same substance, the wt. ([3]; Time 5) was 8.93, the wt. ([3]; Time 6) was 9.42 and the weight ([3]; through the treatment period, 300 μg/kg intraperitoneally once, then 50 μg/kg S.C. for 6 days) was “steady weight gain”. The stability [4] was “acid and heat stable”, the “CD4^+” value ([5]; Time 1) was 28.4% and the “CD8^+” value ([5]; Time 1) was 56.3%. For the same substance, the “Dual CD8^+ CD4^+” value ([5]; Time 1) was 6.7%, the Seg ([5]; Time 1) was 76% and the Seg ([5]; Time 2) was 69%. The “CD4^+” value ([5]; Time 3) was 36.7%, the “CD8^+” value ([5]; Time 3) was 53.1% and the “Dual CD8^+ CD4^+” value ([5]; Time 3) was 6.3%. For the same substance, the Seg ([5]; Time 3) was 61%, the “CD4^+” value ([5]; Time 4) was 31.3% and the “CD8^+” value ([5]; Time 4) was 54.0%. For the same substance, the “Dual CD8^+ CD4^+” value ([5]; Time 4) was 9.1%, the Seg ([5]; Time 4) was 48% and the “CD4^+” value ([5]; Time 5) was 33.4%. For the same substance, the “CD8^+” value ([5]; Time 5) was 49.8%, the “Dual CD8^+ CD4^+” value ([5]; Time 5) was 8.1% and the Seg ([5]; Time 5) was 46%. For the same substance, the “CD4^+” value ([5]; Time 6) was 35.1%, the “CD8^+” value ([5]; Time 6) was 50.3% and the “Dual CD8^+ CD4^+” value ([5]; Time 6) was 7.7%. For the same substance, the Seg ([5]; Time 6) was 56%, the binding affinity [6] was “high affinity in the nanomolar range” and the “estimated pKa of the lysine 29 ε amino” value [7] was 10.4. For the same substance, the average crypt height (mouse intestines) was “more-than-restore crypt height loss”.
In the case of “Loop A: loop peptide region of TGFα, amino acids 1-21 starting at the N terminus (VVSHFNDCPDSHTQFCFHGTC)”, the “TGF-α biological activity” value (stem cells) is reported as “Only Loop C showed significant TGF-α activity”.
For “Loop B: loop peptide region of TGFα, amino acids 16 to 32 (CFHGTCRFLVQEDKPAC)”, the “TGF-α biological activity” value (stem cells) was “Only Loop C showed significant TGF-α activity”.
